The record followed here is PMC11091243, “PD-L1 targeted peptide demonstrates potent antitumor and immunomodulatory activity in cancer immunotherapy” (Frontiers in Immunology, 2024).

Assay [1] addresses human PD-L1 (hPD-L1) (Homo sapiens, UniProt Q9NZQ7). The experiment in a line: Fluorescence-based ELISA, binding specificity. To be noted: 20 μmol/L FITC-labeled peptide, 1.5 h room temperature, n = 3. As for the experimental part: (§1) Fluorescence-based ELISA and cell-based tests were used to examine the binding specificity of PPL-C to PD-L1. To perform the ELISA, fluorescent plates were coated with 100 μL human PD-L1 (hPD-L1), mouse PD-L1 (mPD-L1), and BSA in PBS (pH 7.4) overnight at 4°C, respectively. Blocked the plates with 1% BSA (in PBST) for an hour at room temperature and rinsed twice with PBST. Then added peptides (20 μmol/L FITC-labeled PPL-C/Control peptide) and incubated for 1.5 hours at room temperature. With excitation at 488 nm and emission at 515 nm, the Cytation 3 instrument (BioTek) was used to measure the relative fluorescence intensity. Both attached and detached cells were used in the cell-based flow cytometry analysis. […] After that, cells were treated for 40 minutes at 4°C on an inversion shaker with PD-L1 antibody from Biolegend and 4 μmol/L FITC-labeled peptides (PPL-C/Control peptide). Each tube was washed twice with PBS following incubation and flow cytometry was carried out using a FACSort device. FlowJo software was used to evaluate the data that was acquired.
A general note: ELISA stands for enzyme-linked immunosorbent assay.

For assay [2], the target named is mouse PD-L1 (mPD-L1) (Mus musculus, UniProt Q9EP73). The experiment in a line: Fluorescence-based ELISA, binding specificity. The note with it: 20 μmol/L FITC-labeled peptide, 1.5 h room temperature, n = 3. Here is the method:
as §1

Chain of mouse PD-L1 (mPD-L1) (Q9EP73 19-290): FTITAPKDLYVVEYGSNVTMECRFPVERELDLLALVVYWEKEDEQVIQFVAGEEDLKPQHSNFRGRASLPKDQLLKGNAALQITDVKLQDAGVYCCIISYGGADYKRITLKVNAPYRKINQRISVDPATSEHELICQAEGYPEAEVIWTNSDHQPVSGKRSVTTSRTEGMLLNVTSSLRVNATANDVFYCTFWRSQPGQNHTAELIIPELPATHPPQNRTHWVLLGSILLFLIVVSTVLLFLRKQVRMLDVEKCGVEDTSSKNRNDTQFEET
Chain of human PD-L1 (hPD-L1) (Q9NZQ7 19-290): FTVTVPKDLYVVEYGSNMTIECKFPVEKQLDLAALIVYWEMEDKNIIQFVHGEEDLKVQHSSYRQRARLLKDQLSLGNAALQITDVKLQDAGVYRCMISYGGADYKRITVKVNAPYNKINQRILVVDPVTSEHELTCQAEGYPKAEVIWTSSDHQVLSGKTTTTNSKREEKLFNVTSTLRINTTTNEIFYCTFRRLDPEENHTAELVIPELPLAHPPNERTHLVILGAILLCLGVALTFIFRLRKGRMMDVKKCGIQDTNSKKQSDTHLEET

Regarding `CC(C)[C@H](NC(=O)[C@H](CO)NC(=O)[C@@H](NC(=O)[C@@H](N)CO)C(C)C)C(=O)N[C@@H](CO)C(=O)N[C@@H](Cc1c[nH]cn1)C(=O)N[C@@H](Cc1ccccc1)C(=O)N[C@@H](CCC(N)=O)C(=O)N[C@@H](CCCCN)C(=O)N[C@H](C(=O)N[C@@H](Cc1c[nH]c2ccccc12)C(=O)N[C@H](C(=O)N[C@H](C(=O)NCC(=O)NCC(=O)NCC(=O)N[C@@H](CO)C(=O)N[C@@H](CCCCN)C(N)=O)C(C)C)C(C)C)C(C)C` [PPL-C], the “Binding to hPD-L1” value in assay [1] is reported as “cross-reactivity”. The “Binding to mPD-L1” value in assay [2] was “higher specificity”.
